Laboratory results taken from PubChem BioAssay (NCI).
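Protocol summary: plate cells (96-well), add compound at 5 concentrations, incubate 48 h, interpolate endpoints linearly. At the TGI there is no net growth.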

Legend:
Experiment in all cases: inhibition of tumour cell growth, NCI panel, 48 h
[1] = system: 786-0 renal
[2] = system: A498 renal
[3] = system: A549 NSCLC
[4] = system: ACHN renal
[5] = system: CAKI-1 renal
[6] = system: CCRF-CEM leukemia
[7] = system: COLO 205 colon
[8] = system: DU-145 prostate
[9] = system: EKVX NSCLC
[10] = system: HCC-2998 colon
[11] = system: HCT-116 colon
[12] = system: HCT-15 colon
[13] = system: HL-60(TB) leukemia
[14] = system: HOP-62 NSCLC
[15] = system: HOP-92 NSCLC
[16] = system: HS 578T breast
[17] = system: HT29 colon
[18] = system: IGROV1 ovarian
[19] = system: K-562 leukemia
[20] = system: KM12 colon
[21] = system: LOX IMVI melanoma
[22] = system: M14 melanoma
[23] = system: MALME-3M melanoma
[24] = system: MCF7 breast
[25] = system: MDA-MB-231 breast
[26] = system: MDA-MB-435
[27] = system: MDA-N
[28] = system: MOLT-4 leukemia
[29] = system: NCI-H226 lung
[30] = system: NCI-H23 lung
[31] = system: NCI-H460 lung
[32] = system: NCI-H522 lung
[33] = system: NCI/ADR-RES ovarian
[34] = system: OVCAR-3 ovarian
[35] = system: OVCAR-4 ovarian
[36] = system: OVCAR-5 ovarian
[37] = system: OVCAR-8 ovarian
[38] = system: PC-3 prostate
[39] = system: RPMI-8226 leukemia
[40] = system: RXF 393 renal
[41] = system: SF-268 CNS
[42] = system: SF-295 CNS
[43] = system: SF-539 CNS
[44] = system: SK-MEL-28 melanoma
[45] = system: SK-MEL-5 melanoma
[46] = system: SK-OV-3 ovarian
[47] = system: SN12C renal
[48] = system: SNB-19 CNS
[49] = system: SNB-75 CNS
[50] = system: SR leukemia
[51] = system: SW-620 colon
[52] = system: T-47D breast
[53] = system: TK-10 renal
[54] = system: U251 CNS
[55] = system: UACC-257 melanoma
[56] = system: UACC-62 melanoma
[57] = system: UO-31 renal
[58] = system: SK-MEL-2 melanoma

CCCCCCCc1c(Cl)nc(Cl)nc1Cl showed a TGI [1] of 10.2 µM, a TGI [2] of 34.6 µM and a TGI [3] of 32.8 µM. For the same molecule, the TGI [4] was 20.8 µM, the TGI [5] was 5.36 µM and the TGI [6] was 2.66 µM. The TGI [7] was 17.9 µM, the TGI [8] was 27.4 µM and the TGI [9] was 22.2 µM. The TGI [10] was 17 µM, the TGI [11] was 9.2 µM and the TGI [12] was 10.1 µM. For the same molecule, the TGI [13] was 5.34 µM, the TGI [14] was 33.2 µM and the TGI [15] was 11.4 µM. The TGI [16] was 33.2 µM, the TGI [17] was 13.6 µM and the TGI [18] was 4.83 µM. It also gave a TGI [19] of 4.16 µM, a TGI [20] of 25 µM and a TGI [21] of 4.49 µM. For the same molecule, the TGI [22] was 4.71 µM, the TGI [23] was 8.83 µM and the TGI [24] was 26.9 µM. For the same molecule, the TGI [25] was 9.54 µM, the TGI [26] was 5.94 µM and the TGI [27] was 13.1 µM. It also gave a TGI [28] of 3.51 µM, a TGI [29] of 4.68 µM and a TGI [30] of 10.2 µM. It also gave a TGI [31] of 27.8 µM, a TGI [32] of 3.85 µM and a TGI [33] of 13.3 µM. The TGI [34] was 17.1 µM, the TGI [35] was 9.87 µM and the TGI [36] was 21 µM. For the same molecule, the TGI [37] was 5.18 µM, the TGI [38] was 23.7 µM and the TGI [39] was 8.85 µM. It also gave a TGI [40] of 6.26 µM, a TGI [41] of 16.3 µM and a TGI [42] of 31.6 µM. It also gave a TGI [43] of 23.5 µM, a TGI [44] of 18.6 µM and a TGI [45] of 14.8 µM. It also gave a TGI [46] of 18.5 µM, a TGI [47] of 4.65 µM and a TGI [48] of 24.4 µM. The TGI [49] was 28.9 µM, the TGI [50] was 3.14 µM and the TGI [51] was 6.21 µM. For the same molecule, the TGI [52] was 30.4 µM, the TGI [53] was 26.7 µM and the TGI [54] was 9.89 µM. The TGI [55] was 23.3 µM, the TGI [56] was 20.5 µM and the TGI [57] was 17.3 µM.
For O=c1ssc2ncccc12, the TGI [1] was 38.2 µM, the TGI [2] was over 100 µM and the TGI [3] was 39.7 µM. The TGI [4] was 31.9 µM, the TGI [5] was over 100 µM and the TGI [6] was over 100 µM. For the same molecule, the TGI [7] was 34.8 µM, the TGI [8] was over 100 µM and the TGI [9] was over 100 µM. The TGI [10] was 39.3 µM, the TGI [11] was 40.1 µM and the TGI [12] was 27.4 µM. It also gave a TGI [13] of over 100 µM, a TGI [14] of 45.5 µM and a TGI [15] of over 100 µM. It also gave a TGI [16] of over 100 µM, a TGI [17] of 53.6 µM and a TGI [19] of over 100 µM. The TGI [20] was 48 µM, the TGI [21] was 35 µM and the TGI [22] was 41.8 µM. The TGI [23] was 50.2 µM, the TGI [24] was 33 µM and the TGI [25] was 26.2 µM. The TGI [26] was 31.5 µM, the TGI [27] was 34.9 µM and the TGI [28] was over 100 µM. It also gave a TGI [29] of 7.65 µM, a TGI [30] of over 100 µM and a TGI [31] of 52.3 µM. It also gave a TGI [32] of 28.9 µM, a TGI [33] of over 100 µM and a TGI [34] of 35.6 µM. For the same molecule, the TGI [36] was 55.1 µM, the TGI [38] was over 100 µM and the TGI [39] was 40.5 µM. For the same molecule, the TGI [40] was 37.4 µM, the TGI [41] was 69.6 µM and the TGI [42] was over 100 µM. It also gave a TGI [43] of 70.5 µM, a TGI [58] of 27.8 µM and a TGI [44] of 42.5 µM. It also gave a TGI [45] of 25.9 µM, a TGI [46] of over 100 µM and a TGI [47] of 28.8 µM. For the same molecule, the TGI [48] was over 100 µM, the TGI [49] was 34.9 µM and the TGI [50] was over 100 µM. It also gave a TGI [51] of 43.6 µM, a TGI [52] of over 100 µM and a TGI [53] of over 100 µM. It also gave a TGI [54] of 33.1 µM, a TGI [55] of 50.4 µM and a TGI [56] of 24 µM. The TGI [57] was 32 µM.
CC(=O)CC(O)(C(F)(F)Cl)C(F)(F)Cl was tested, and the TGI [1] was over 10 µM, the TGI [2] was over 10 µM and the TGI [3] was over 10 µM. The TGI [4] was over 10 µM, the TGI [5] was over 10 µM and the TGI [6] was over 10 µM. The TGI [7] was over 10 µM, the TGI [8] was over 10 µM and the TGI [9] was over 10 µM. The TGI [10] was over 10 µM, the TGI [11] was over 10 µM and the TGI [12] was over 10 µM. For the same molecule, the TGI [13] was over 10 µM, the TGI [14] was over 10 µM and the TGI [15] was over 10 µM. For the same molecule, the TGI [16] was over 10 µM, the TGI [17] was over 10 µM and the TGI [18] was over 10 µM. It also gave a TGI [19] of over 10 µM, a TGI [20] of over 10 µM and a TGI [21] of over 10 µM. It also gave a TGI [22] of over 10 µM, a TGI [23] of over 10 µM and a TGI [24] of over 10 µM. The TGI [25] was over 10 µM, the TGI [26] was over 10 µM and the TGI [27] was over 10 µM. For the same molecule, the TGI [28] was over 10 µM, the TGI [29] was over 10 µM and the TGI [30] was over 10 µM. The TGI [31] was over 10 µM, the TGI [32] was over 10 µM and the TGI [33] was over 10 µM. It also gave a TGI [34] of over 10 µM, a TGI [35] of over 10 µM and a TGI [37] of over 10 µM. For the same molecule, the TGI [38] was over 10 µM, the TGI [39] was over 10 µM and the TGI [40] was over 10 µM. It also gave a TGI [41] of over 10 µM, a TGI [42] of over 10 µM and a TGI [43] of over 10 µM. The TGI [58] was over 10 µM, the TGI [44] was over 10 µM and the TGI [45] was over 10 µM. The TGI [46] was over 10 µM, the TGI [47] was over 10 µM and the TGI [48] was over 10 µM. For the same molecule, the TGI [49] was over 10 µM, the TGI [50] was over 10 µM and the TGI [51] was over 10 µM. It also gave a TGI [52] of over 10 µM, a TGI [53] of over 10 µM and a TGI [54] of over 10 µM. It also gave a TGI [55] of over 10 µM, a TGI [56] of over 10 µM and a TGI [57] of over 10 µM.
